These results are taken from ChEMBL document CHEMBL1130602 (Bioorg Med Chem Lett, 1998).

Assay [1] deals with D(2) dopamine receptor (Homo sapiens) (UniProt P14416). In words: Selectivity ratio of Ki of D2 receptor to that of D3 receptor.
Another assay relates to CHO-hD3. The assay can be described thus: (§1) Compound was tested for stimulation of mitogenesis in CHO.hD3 cells in a dose dependent manner. It counts as functional, cell-based. As to conditions: Cricetulus griseus.
Assay [2] addresses Serotonin 2 (5-HT2) receptor (Rattus norvegicus, UniProt P30994+P08909+P14842). In words: Compound was evaluated for binding affinity against 5-hydroxytryptamine 2 receptor from rat. The assay is classed as protein assay.
For assay [3], the target named is T1, Adrenergic receptor alpha-1 (Rattus norvegicus, UniProt P15823+P23944+P43140).
T1 sequence (P15823 whole entry): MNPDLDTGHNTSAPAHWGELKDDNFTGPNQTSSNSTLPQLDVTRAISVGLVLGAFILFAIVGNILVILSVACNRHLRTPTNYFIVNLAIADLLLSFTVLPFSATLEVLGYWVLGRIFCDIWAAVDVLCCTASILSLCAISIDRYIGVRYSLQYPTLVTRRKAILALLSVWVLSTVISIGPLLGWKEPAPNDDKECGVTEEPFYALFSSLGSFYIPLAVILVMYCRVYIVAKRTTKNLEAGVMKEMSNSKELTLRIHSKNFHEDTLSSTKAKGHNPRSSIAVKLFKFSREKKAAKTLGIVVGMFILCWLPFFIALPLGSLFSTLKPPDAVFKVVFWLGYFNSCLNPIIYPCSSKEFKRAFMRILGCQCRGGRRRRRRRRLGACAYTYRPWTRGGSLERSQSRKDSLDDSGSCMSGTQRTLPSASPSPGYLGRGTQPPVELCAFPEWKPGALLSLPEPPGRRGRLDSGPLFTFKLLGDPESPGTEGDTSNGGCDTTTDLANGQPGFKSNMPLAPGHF
T1 sequence (P23944 whole entry): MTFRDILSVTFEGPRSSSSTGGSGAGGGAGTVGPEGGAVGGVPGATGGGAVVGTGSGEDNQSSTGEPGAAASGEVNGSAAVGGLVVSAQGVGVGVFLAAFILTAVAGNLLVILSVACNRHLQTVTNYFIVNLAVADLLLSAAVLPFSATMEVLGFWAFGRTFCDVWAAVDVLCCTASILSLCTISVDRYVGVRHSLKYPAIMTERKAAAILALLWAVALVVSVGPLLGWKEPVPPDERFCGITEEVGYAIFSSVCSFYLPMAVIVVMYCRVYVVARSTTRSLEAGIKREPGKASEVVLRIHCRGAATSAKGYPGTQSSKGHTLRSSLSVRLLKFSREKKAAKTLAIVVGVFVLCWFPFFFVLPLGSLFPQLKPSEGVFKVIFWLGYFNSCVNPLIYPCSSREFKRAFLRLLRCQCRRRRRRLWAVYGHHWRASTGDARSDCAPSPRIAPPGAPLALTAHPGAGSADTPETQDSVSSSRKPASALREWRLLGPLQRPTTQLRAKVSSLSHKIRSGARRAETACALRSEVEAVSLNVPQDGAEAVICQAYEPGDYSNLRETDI
T1 sequence (P43140 whole entry): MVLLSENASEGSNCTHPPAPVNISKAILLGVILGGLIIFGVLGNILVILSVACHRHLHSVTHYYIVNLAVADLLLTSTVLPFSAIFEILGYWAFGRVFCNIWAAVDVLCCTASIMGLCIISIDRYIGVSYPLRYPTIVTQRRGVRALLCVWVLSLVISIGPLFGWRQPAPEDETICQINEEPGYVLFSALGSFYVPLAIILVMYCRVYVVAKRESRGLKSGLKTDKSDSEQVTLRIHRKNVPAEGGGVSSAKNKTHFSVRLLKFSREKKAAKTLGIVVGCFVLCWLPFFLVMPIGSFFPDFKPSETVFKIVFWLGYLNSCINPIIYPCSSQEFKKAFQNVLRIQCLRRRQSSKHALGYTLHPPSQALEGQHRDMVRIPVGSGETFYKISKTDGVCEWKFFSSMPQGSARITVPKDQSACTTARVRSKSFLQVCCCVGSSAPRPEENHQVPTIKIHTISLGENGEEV
The assay can be described thus: Compound was evaluated for binding affinity against Alpha-1 adrenergic receptor from rat. The assay is classed as protein assay.

The target in a further assay is D(1A) dopamine receptor (Homo sapiens, UniProt P21728). The assay can be described thus: Compound was evaluated for binding affinity against Dopamine receptor D1 transfected in CHO cell membranes.
In assay [4] the target is T2, D(4) dopamine receptor (Homo sapiens, UniProt P21917).
T2 sequence (P21917 whole entry): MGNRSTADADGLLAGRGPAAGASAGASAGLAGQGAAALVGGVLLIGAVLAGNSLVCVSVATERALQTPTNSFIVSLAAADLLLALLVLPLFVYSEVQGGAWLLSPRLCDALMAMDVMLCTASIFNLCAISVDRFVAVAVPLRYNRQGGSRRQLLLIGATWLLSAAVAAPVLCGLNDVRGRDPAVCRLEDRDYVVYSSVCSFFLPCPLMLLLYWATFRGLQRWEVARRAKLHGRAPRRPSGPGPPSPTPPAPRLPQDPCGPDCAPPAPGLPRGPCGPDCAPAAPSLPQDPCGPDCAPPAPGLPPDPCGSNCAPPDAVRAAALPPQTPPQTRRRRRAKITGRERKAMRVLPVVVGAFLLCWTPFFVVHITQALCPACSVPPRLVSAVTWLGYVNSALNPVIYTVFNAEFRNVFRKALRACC
The assay can be described thus: Compound was evaluated for binding affinity against human Dopamine receptor D4 transfected in CHO cell membranes.

The next assay has as its target D(1B) dopamine receptor (Homo sapiens, UniProt P21918). In words: Compound was evaluated for binding affinity against human Dopamine receptor D5 transfected in CHO cell membranes.
Assay [5] concerns the target T2, D(4) dopamine receptor. The assay can be described thus: Affinity against D4 receptor was evaluated.
The target in the next assay is D(3) dopamine receptor (Homo sapiens, UniProt P35462). In words: Compound was evaluated for binding affinity against human Dopamine receptor D3 transfected in CHO cell membranes to stimulate [3H]thymidine uptake.
In a further assay the test system is CHO. The assay is described as §1. The assay is classed as functional, cell-based. As to conditions: Cricetulus griseus.

For orientation: IC50 means the point on the concentration scale where inhibition reaches its midpoint. Low values mean inhibition by little substance, high ones a need for much substance. Broadly, the Ki is a measure of affinity in units of concentration, obtained from inhibition or displacement. A high value points to weaker binding.

Sequence of D(1B) dopamine receptor (P21918 whole entry): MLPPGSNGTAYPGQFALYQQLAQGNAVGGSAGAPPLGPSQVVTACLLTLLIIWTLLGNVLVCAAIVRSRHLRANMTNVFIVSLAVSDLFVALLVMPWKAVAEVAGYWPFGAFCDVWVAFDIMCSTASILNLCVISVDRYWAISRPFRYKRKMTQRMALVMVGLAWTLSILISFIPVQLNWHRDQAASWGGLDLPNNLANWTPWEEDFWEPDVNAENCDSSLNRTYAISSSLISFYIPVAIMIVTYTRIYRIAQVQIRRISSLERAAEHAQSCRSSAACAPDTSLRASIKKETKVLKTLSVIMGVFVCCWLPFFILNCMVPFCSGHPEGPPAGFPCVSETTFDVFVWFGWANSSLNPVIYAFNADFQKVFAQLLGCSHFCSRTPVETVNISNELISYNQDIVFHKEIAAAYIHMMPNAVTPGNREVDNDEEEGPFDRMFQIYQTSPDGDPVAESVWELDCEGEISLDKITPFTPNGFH
Sequence of D(1A) dopamine receptor (P21728 whole entry): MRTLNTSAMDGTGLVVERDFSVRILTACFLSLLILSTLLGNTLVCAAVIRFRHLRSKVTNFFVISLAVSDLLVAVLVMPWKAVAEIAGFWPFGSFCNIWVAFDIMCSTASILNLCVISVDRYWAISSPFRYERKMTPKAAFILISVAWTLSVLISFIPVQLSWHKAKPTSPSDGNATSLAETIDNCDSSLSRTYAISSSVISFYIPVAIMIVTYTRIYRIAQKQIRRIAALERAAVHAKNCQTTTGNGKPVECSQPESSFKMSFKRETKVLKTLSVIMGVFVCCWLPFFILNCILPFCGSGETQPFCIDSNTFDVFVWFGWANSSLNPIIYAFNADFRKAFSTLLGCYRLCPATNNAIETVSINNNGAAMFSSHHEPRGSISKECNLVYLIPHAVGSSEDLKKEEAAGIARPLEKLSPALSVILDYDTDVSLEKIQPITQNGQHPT
Sequence of D(3) dopamine receptor (P35462 whole entry): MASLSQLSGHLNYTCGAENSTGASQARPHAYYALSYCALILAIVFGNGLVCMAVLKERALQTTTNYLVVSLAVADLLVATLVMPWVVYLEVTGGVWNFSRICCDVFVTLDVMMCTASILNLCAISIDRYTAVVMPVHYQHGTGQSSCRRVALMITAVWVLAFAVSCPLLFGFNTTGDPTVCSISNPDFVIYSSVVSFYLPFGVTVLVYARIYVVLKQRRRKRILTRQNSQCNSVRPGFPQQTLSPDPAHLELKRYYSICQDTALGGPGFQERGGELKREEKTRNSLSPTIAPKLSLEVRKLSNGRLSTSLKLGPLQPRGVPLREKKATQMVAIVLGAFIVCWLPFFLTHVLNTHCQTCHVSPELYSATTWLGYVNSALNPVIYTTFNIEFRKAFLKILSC
Sequence of D(2) dopamine receptor (Homo sapiens) (P14416 whole entry): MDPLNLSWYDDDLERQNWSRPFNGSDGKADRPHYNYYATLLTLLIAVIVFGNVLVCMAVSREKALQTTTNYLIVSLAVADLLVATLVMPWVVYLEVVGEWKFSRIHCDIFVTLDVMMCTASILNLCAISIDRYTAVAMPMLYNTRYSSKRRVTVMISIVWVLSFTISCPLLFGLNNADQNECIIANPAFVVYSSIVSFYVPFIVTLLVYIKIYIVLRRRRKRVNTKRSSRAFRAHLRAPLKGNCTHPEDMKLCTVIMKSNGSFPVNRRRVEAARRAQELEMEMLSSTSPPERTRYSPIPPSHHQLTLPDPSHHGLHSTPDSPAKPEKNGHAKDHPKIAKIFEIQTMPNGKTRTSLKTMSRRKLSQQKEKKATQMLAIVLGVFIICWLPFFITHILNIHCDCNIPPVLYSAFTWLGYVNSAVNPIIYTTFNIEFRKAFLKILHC

In the case of `CCCCN1CCCC1CNC(=O)c1cc(C#N)c2ccccc2c1OC` (stereo unspecified), the Ratio in assay [1] was 10.
Regarding `O=C(CCCN1CCC(O)(c2ccc(Cl)cc2)CC1)c1ccc(F)cc1` [HALOPERIDOL], in the assay on CHO-hD3, the IC50 came to 8.8 nM.
As to `O=C(NCCCCN1CCN(c2cccc(Cl)c2Cl)CC1)c1ccc2c(c1)Cc1ccccc1-2`, the Ki in [2] was 223 nM; in assay [3] it was 642 nM; at D(1A) dopamine receptor it was more than 10 µM; on D(4) dopamine receptor [4], more than 5 µM; at D(1B) dopamine receptor, more than 10 µM. Also, the IC50 in the assay on CHO-hD3 came out at 5 nM.
On to `COc1c(C(=O)NCCN2CCN(c3cccc(Cl)c3Cl)CC2)cc(Br)c2ccccc12`, for which the Ki at D(4) dopamine receptor [5] was 65 nM.
For `O=C(NCCCCN1CCN(c2cccc(Cl)c2Cl)CC1)c1ccc2c(c1)-c1ccccc1-2`, the Ki is 125 nM in assay [2]; 547 nM in assay [3]; more than 10 µM at D(1A) dopamine receptor; 0.9 nM at D(3) dopamine receptor; more than 5 µM on D(4) dopamine receptor [4]; more than 10 µM on D(1B) dopamine receptor. This molecule showed an IC50 in the assay on CHO of 6.8 nM.
